Like-named read-outs stand apart in the source and are kept apart here. Where a SMILES comes first, the peptide text is derived from it. Where no end group is shown, it is not given here. [ ]: non-standard residue; d: D form. Phe(4-NO2) = N[C@@H](Cc1ccc([N+](=O)[O-])cc1)C(=O)O; pGlu = O=C1CC[C@@H](C(=O)O)N1; 2Abz = Nc1ccccc1C(=O)O
Assays:
[1] = target: T1, angiotensin-converting enzyme (ACE) from rabbit lung (Oryctolagus cuniculus, UniProt P12822); type: biochemical; parameters: angiotensin-converting enzyme (ACE) from rabbit lung; purchased Sigma-Aldrich (Zwijndrecht, The Netherlands); host or cells: rabbit lung tissue; settings: peptide in bioactive wells after LC nanofractionation of crude venom, sequenced by nanoLC-MS/MS
T1 sequence (P12822 34-1310): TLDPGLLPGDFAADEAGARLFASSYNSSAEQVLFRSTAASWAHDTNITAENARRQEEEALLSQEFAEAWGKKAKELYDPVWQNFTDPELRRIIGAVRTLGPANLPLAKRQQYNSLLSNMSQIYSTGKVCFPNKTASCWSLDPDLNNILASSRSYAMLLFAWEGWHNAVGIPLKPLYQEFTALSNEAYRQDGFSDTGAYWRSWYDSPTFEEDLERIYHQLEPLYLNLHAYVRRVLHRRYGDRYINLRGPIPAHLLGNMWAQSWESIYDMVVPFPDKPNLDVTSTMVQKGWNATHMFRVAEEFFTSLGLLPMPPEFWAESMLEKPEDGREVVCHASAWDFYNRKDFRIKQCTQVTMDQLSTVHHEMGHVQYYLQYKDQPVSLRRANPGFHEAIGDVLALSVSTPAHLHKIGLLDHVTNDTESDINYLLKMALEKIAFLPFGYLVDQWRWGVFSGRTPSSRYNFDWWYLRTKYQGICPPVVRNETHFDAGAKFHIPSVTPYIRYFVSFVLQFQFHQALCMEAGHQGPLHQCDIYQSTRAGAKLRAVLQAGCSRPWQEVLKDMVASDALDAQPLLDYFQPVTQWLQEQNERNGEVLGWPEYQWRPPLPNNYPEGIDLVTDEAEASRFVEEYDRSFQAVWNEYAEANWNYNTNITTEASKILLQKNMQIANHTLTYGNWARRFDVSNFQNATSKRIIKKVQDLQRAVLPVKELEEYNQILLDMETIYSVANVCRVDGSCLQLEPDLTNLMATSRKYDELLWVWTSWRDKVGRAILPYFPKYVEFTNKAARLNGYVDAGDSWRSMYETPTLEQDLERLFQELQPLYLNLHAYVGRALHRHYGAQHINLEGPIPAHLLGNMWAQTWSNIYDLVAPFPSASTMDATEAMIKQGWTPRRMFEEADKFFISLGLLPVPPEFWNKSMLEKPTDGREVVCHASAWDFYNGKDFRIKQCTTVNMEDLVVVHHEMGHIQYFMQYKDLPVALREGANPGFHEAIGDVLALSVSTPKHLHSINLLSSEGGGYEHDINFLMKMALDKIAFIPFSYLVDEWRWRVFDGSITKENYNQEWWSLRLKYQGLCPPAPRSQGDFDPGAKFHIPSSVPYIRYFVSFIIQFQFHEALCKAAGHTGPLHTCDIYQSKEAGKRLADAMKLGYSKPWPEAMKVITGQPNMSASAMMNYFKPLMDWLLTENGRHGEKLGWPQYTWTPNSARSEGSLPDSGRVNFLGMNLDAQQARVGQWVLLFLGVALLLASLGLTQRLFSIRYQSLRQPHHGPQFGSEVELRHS
Excerpt: Water was purified using a Milli-Q Plus system from Millipore (Amsterdam, The Netherlands). Acetonitrile (ACN) (ULC/MS grade) and formic acid (FA) were obtained from Biosolve (Valkenswaard, The Netherlands). […] DMSO was obtained from Riedel-de Haën (Zwijndrecht, The Netherlands). Most snake venoms were obtained commercially from Kentucky Reptile Zoo (USA), Ventoxin (USA), Biotoxin (USA), Venom Supplies (Tanunda, Australia), and African Reptiles & Venoms (Johannesburg, South Africa). The Boiga irregularis and Gloydius blomhoffii venoms were kind gifts from Prof. Steve Mackessy (University of Northern Colorado, USA) and Prof. Sadaaki Iwanaga (Kyushu University, Japan), respectively. Lyophilized venoms were kept at −20 °C. Prior to analysis, snake venoms were diluted in water to an end concentration of approximately 5.0 ± 0.1 mg/mL. After analysis, the samples were kept at −80 °C for later re-analysis.
Liquid chromatography separation was performed on a Shimadzu (‘s-Hertogenbosch, The Netherlands) UPLC system controlled via the Shimadzu Lab Solutions software. Sample injection was performed with a Shimadzu SIL-30AC autosampler using a 50-μL injection volume for RPLC separation and a 20-μL injection volume for HILIC separation. A gradient separation was performed on a Waters (Milford, MA) xBridge C18 column (100 × 4.6 mm; 5 μm) with an xBridge C18 guard column (10 × 4.6 mm; 5 μm) in RPLC mode. In HILIC mode, an Atlantis™ HILIC silica column (150 × 2.1 mm; 3 μm) was used. The columns were thermostated at 37 °C in a Shimadzu CTD-30A column oven. The solvent delivery was performed with two Shimadzu LC-30AD parallel pumps with 0.6 and 0.15 mL/min total flow rates for RPLC and HILIC separation, respectively. The mobile phases consisted of eluent A (98% H2O, 2% ACN, and 0.1% FA) and eluent B (98% ACN, 2% H2O, and 0.1% FA). The setup was optimized and validated in RPLC mode using the following gradient: a linear increase from 0 to 30% B in 20 min followed by 5-min isocratic elution at 30% B and a subsequent decrease to 0% B in 1 min with a 5-min equilibration time. The snake venoms screening for ACE activity was performed both in RPLC and HILIC mode. In the RPLC mode, venoms were analyzed using a 20-min linear gradient from 0 to 50% B followed by a linear increase to 90% B in 2 min and then a 2-min isocratic elution at 90% B before going back to 0% B in 1 min. The column was then equilibrated for 5 min. In the HILIC mode, separation started at 50% B and decreased linearly to 0% B in 20 min. This was followed by 4-min column washing at 0% B and a subsequent increase to 50% B in 1 min. The column was then equilibrated for 10 min. After the column, a flow split was introduced in a 1:9 ratio. The larger flow portion was directed to a Gilson 235P autosampler for 6-s nanofractionation onto black 384-well plates (Greiner Bio One, Alphen aan den Rijn, The Netherlands). The nanofractionated plates were subsequently dried in a Christ Rotational Vacuum Concentrator (Salm en Kipp, Breukelen, The Netherlands) RVC 2−33 CD plus and then stored at −20 °C until use. Ariadne, an in-house written software, was used to control the nanofractionation. The smaller flow portion was directed towards a Shimadzu SPD-M20A prominence diode array detector followed by a Waters Ultima quadrupole–time-of-flight (q–TOF) mass spectrometer equipped with an electrospray ionization (ESI) source. […]

[2] = target: T1, angiotensin-converting enzyme (ACE) from rabbit lung; test: ACE bioactivity assay, dose-response (concentration-response) curves of synthetic peptides; type: biochemical; parameters: angiotensin-converting enzyme (ACE) from rabbit lung; purchased Sigma-Aldrich (Zwijndrecht, The Netherlands); host or cells: rabbit lung tissue
Description: Water was purified using a Milli-Q Plus system from Millipore (Amsterdam, The Netherlands). Acetonitrile (ACN) (ULC/MS grade) and formic acid (FA) were obtained from Biosolve (Valkenswaard, The Netherlands). […] DMSO was obtained from Riedel-de Haën (Zwijndrecht, The Netherlands).
(§1) ACE was stored at −20 °C as a 1-U/mL solution in 50% glycerol/50% 0.15 M Tris-HCl pH 8.3 supplemented with 5 mM ZnCl2. […] The assay was performed in a 0.15 M Tris-HCl buffer pH 8.3 supplemented with 0.5 M NaCl. […] This solution was then added directly to the nanofractionated plates at room temperature using a Multidrop™ 384 Reagent Dispenser (Thermo Fisher Scientific, Ermelo, The Netherlands). The final volume of the assay was 75 μL/well. The readout of the assay was fluorescence measured with a Varioskan™ Flash Multimode Reader (Thermo Fisher Scientific, Ermelo, The Netherlands) at 320 nm excitation and 420 nm emission wavelength. The measurements were performed at 37 °C after 1 h and after 2 h from the start of addition of the assay solution to the plates. Between the two time points, the plates were incubated at 37 °C. The activity of ACE in the wells was expressed as the slope of the kinetic curve that resulted from the two time point measurements. The resulting slopes were normalized and plotted in a graph versus time of each nanofraction collected using the GraphPad Prism 6 software (La Jolla, CA, USA). The slopes were normalized by dividing each slope value with the median of all the values obtained in a single measurement.
The dose-response curves of all four synthetic peptides were determined and the IC50 values for each peptide were determined in the ACE bioactivity assay.
The serial dilutions of the peptides were tested in the assay using 1 mU/mL ACE enzyme and
40 µM substrate concentration.

[3] = target: T1, angiotensin-converting enzyme (ACE) from rabbit lung; settings: Fig. S1; for Vmax: normalized response
Description: as §1
In the presence of an ACE inhibitor, a drop in the basal fluorescence is detected.
This was done by performing enzyme kinetic experiments using different substrate and enzyme concentrations. In total, five different enzyme concentrations (2.5, 5, 10, 20, and 40 mU) were tested in the ACE bioactivity assay, at eight substrate concentrations (5–500 μM), in a matrix fashion. […] Therefore, the results excluding the highest concentration tested (500 μM) were fitted into a Michaelis-Menten enzyme kinetic model. […] The data presented was normalized for comparison reasons (ESM Fig. S1). […] However, when using sufficiently long incubation times, low enzyme concentrations will yield a sufficient assay window for obtaining good S/N, also in combination with much lower than the Km substrate concentrations. In practice, these assay conditions allowed for two measurement points at 1 and 2 h after the beginning of the incubation resulting in repeatable slope determination of the enzymatic product formation.

pEQWPPGHH(I/L)PP
ACE inhibitory peptide assigned to bioactivity peak (in words) [1]: ACE inhibitory peptides
ACE inhibitory peptide assigned to bioactivity peak (in words) ([1]; listed as peptide with m/z 1276): major bioactive compounds

CC(C)C[C@H](NC(=O)[C@@H]1CCCN1C(=O)[C@@H]1CCCN1C(=O)[C@H](CCCNC(=N)N)NC(=O)[C@@H]1CCCN1C(=O)[C@@H]1CCCN1C(=O)[C@H](Cc1c[nH]c2ccccc12)NC(=O)[C@@H]1CCCN1C(=O)[C@@H]1CCCN1C(=O)[C@H](Cc1c[nH]c2ccccc12)NC(=O)[C@@H]1CCC(=O)N1)C(=O)N1CCC[C@H]1C(=O)N1CCC[C@H]1C(=O)O ([pGlu]WPPWPPRPPLPP-OH)
IC50 [2]: 3370 nM

pEWPPWPPRPP(I/L)PP
ACE inhibitory peptide assigned to bioactivity peak (in words) [1]: bioactive peptide

CC[C@H](C)[C@H](NC(=O)[C@@H]1CCCN1C(=O)[C@@H]1CCCN1C(=O)[C@H](CCCNC(=N)N)NC(=O)[C@@H]1CCCN1C(=O)[C@@H]1CCCN1C(=O)[C@H](Cc1c[nH]c2ccccc12)NC(=O)[C@@H]1CCCN1C(=O)[C@@H]1CCCN1C(=O)[C@H](Cc1c[nH]c2ccccc12)NC(=O)[C@@H]1CCC(=O)N1)C(=O)N1CCC[C@H]1C(=O)N1CCC[C@H]1C(=O)O ([pGlu]WPPWPPRPPIPP-OH; C-terminus assumed)
IC50 [2]: 3470 nM

CC(C)C[C@H](NC(=O)[C@@H]1CCC(=O)N1)C(=O)N[C@@H](Cc1c[nH]c2ccccc12)C(=O)N1CCC[C@H]1C(=O)N[C@@H](CCCNC(=N)N)C(=O)N1CCC[C@H]1C(=O)N[C@@H](Cc1c[nH]cn1)C(=O)N[C@H](C(=O)N1CCC[C@H]1C(=O)N1CCC[C@H]1C(=O)O)C(C)C ([pGlu]LWPRPHVPP-OH)
IC50 [2]: 1090 nM

Nc1ccccc1C(=O)NCC(=O)N[C@@H](Cc1ccc([N+](=O)[O-])cc1)C(=O)N1CCC[C@H]1C(=O)O [M1100, o-Aminobenzoylglycyl-p-nitro-L-phenylalanyl-L-proline] (H-[2Abz]G[Phe(4-NO2)]P-OH)
Km ([3]; 2.5 mU ACE): 46.8 µM
Vmax ([3]; 2.5 mU ACE): 120.0
Km ([3]; 5 mU ACE): 79.4 µM
Vmax ([3]; 5 mU ACE): 129.3
Km ([3]; 10 mU ACE): 56.3 µM
Vmax ([3]; 10 mU ACE): 122.9
Km ([3]; 20 mU ACE): 65.9 µM
Vmax ([3]; 20 mU ACE): 126.5
Km ([3]; 40 mU ACE): 65.4 µM
Vmax ([3]; 40 mU ACE): 126.6

[pGlu]NWPRPKVPP
ACE inhibitory peptide assigned to bioactivity peak (in words) [1]: ACE inhibitory peptides

pE(I/L)WPRPHVPP
ACE inhibitory peptide assigned to bioactivity peak (in words) [1]: major bioactive compounds

CC[C@H](C)[C@H](NC(=O)[C@@H]1CCC(=O)N1)C(=O)N[C@@H](Cc1c[nH]c2ccccc12)C(=O)N1CCC[C@H]1C(=O)N[C@@H](CCCNC(=N)N)C(=O)N1CCC[C@H]1C(=O)N[C@@H](Cc1c[nH]cn1)C(=O)N[C@H](C(=O)N1CCC[C@H]1C(=O)N1CCC[C@H]1C(=O)O)C(C)C ([pGlu]IWPRPHVPP-OH)
IC50 [2]: 1010 nM
